Data reported in patent publication US11542240B2, “STK19 inhibitors for treatment of cancer” (TRUSTEES OF BOSTON UNIVERSITY, priority 2018, dated 2023).
Where two headings read alike, the source gives them in different places.

Legend:
Assay in all cases: biochemical
Type in all cases: binding
[1] = target: panel of 468 diverse kinases (Homo sapiens, UniProt O14730); settings: RIOK3; 1000 nM; read-out: Percent Control
[2] = target: panel of 468 diverse kinases (Homo sapiens, UniProt O15197); settings: EPHB6; 1000 nM; read-out: Percent Control
[3] = target: panel of 468 diverse kinases (Homo sapiens, UniProt O43283); settings: LZK; 1000 nM; read-out: Percent Control
[4] = target: panel of 468 diverse kinases (Homo sapiens, UniProt O75460); settings: ERN1; 1000 nM; read-out: Percent Control
[5] = target: panel of 468 diverse kinases (Homo sapiens, UniProt P00519, H396P); settings: 1000 nM, read-out: Percent Control
[6] = target: panel of 468 diverse kinases (Homo sapiens, UniProt P00519, Q252H); settings: 1000 nM, read-out: Percent Control
[7] = target: panel of 468 diverse kinases (Homo sapiens, UniProt P00533, DEL746-750); settings: EGFR(E746-A750del); 1000 nM; read-out: Percent Control
[8] = target: panel of 468 diverse kinases (Homo sapiens, UniProt P00533, G719S); settings: EGFR(G719S); 1000 nM; read-out: Percent Control
[9] = target: panel of 468 diverse kinases (Homo sapiens, UniProt P08581); settings: MET; 1000 nM; read-out: Percent Control
panel of 468 diverse kinases (Homo sapiens, UniProt P08581), sequence (P08581 25-1390 limits assumed): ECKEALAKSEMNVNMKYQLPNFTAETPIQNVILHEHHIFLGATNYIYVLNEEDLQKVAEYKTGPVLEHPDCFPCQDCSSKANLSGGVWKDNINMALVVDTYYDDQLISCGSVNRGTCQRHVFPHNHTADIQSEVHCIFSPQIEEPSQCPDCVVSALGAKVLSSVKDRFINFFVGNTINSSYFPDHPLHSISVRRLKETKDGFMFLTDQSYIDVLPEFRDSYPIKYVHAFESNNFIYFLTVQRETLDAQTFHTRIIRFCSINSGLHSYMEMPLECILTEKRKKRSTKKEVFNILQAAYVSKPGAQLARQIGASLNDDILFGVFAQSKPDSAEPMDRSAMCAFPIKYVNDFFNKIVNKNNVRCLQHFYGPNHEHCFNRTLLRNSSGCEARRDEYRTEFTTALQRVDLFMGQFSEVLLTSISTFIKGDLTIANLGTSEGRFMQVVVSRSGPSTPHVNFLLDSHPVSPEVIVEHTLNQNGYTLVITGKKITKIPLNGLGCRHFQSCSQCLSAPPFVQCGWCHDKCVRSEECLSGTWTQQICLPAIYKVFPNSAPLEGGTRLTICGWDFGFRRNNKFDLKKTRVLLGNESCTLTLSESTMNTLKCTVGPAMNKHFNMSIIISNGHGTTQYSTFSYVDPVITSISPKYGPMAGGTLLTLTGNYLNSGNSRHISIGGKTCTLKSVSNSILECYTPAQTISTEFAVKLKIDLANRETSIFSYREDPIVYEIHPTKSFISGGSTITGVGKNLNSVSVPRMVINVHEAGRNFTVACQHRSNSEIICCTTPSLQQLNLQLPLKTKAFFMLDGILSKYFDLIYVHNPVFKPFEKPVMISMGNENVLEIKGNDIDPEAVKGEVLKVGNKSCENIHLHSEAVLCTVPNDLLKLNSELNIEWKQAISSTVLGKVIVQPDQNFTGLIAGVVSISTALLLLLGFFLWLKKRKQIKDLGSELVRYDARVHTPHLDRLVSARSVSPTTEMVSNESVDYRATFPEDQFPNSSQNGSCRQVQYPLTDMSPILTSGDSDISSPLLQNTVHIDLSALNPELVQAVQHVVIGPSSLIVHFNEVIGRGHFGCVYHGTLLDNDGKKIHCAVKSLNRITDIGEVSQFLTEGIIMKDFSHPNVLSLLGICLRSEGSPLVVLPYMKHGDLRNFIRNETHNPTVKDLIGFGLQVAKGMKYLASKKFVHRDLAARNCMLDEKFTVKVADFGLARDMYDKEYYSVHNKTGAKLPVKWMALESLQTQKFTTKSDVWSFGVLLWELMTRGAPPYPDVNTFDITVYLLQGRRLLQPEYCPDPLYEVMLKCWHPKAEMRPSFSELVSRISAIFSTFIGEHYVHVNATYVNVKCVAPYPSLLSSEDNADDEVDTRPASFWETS

[10] = target: panel of 468 diverse kinases (Homo sapiens, UniProt P10721, T670I/V559D); settings: KIT(V559D,T670I); 1000 nM; read-out: Percent Control
[11] = target: panel of 468 diverse kinases (Homo sapiens, UniProt P15056); settings: BRAF; 1000 nM; read-out: Percent Control
panel of 468 diverse kinases (Homo sapiens, UniProt P15056), sequence (P15056 2-766 limits assumed): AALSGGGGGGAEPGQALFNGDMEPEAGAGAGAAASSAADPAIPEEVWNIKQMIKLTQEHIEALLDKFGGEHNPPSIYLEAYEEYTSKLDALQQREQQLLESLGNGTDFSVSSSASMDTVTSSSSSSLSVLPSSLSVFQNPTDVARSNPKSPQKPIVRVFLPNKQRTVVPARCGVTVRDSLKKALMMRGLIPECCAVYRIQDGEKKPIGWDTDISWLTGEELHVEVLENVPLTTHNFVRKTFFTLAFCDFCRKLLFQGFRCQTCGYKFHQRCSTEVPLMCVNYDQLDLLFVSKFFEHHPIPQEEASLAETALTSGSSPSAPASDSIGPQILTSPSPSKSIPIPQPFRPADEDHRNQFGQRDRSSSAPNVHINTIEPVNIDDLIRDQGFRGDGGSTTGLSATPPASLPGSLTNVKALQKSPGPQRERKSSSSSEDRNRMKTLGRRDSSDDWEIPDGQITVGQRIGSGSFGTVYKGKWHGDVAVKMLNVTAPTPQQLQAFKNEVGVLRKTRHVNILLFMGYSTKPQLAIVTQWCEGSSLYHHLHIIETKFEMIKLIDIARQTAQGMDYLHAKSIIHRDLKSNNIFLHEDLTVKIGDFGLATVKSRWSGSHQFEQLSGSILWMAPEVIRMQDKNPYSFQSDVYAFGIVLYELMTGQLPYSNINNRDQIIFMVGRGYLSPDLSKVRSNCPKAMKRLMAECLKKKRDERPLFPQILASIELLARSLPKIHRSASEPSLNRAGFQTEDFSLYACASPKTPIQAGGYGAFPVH

[12] = target: panel of 468 diverse kinases (Homo sapiens, UniProt P16234); settings: PDGFRA; 1000 nM; read-out: Percent Control
panel of 468 diverse kinases (Homo sapiens, UniProt P16234), sequence (P16234 24-1089 limits assumed): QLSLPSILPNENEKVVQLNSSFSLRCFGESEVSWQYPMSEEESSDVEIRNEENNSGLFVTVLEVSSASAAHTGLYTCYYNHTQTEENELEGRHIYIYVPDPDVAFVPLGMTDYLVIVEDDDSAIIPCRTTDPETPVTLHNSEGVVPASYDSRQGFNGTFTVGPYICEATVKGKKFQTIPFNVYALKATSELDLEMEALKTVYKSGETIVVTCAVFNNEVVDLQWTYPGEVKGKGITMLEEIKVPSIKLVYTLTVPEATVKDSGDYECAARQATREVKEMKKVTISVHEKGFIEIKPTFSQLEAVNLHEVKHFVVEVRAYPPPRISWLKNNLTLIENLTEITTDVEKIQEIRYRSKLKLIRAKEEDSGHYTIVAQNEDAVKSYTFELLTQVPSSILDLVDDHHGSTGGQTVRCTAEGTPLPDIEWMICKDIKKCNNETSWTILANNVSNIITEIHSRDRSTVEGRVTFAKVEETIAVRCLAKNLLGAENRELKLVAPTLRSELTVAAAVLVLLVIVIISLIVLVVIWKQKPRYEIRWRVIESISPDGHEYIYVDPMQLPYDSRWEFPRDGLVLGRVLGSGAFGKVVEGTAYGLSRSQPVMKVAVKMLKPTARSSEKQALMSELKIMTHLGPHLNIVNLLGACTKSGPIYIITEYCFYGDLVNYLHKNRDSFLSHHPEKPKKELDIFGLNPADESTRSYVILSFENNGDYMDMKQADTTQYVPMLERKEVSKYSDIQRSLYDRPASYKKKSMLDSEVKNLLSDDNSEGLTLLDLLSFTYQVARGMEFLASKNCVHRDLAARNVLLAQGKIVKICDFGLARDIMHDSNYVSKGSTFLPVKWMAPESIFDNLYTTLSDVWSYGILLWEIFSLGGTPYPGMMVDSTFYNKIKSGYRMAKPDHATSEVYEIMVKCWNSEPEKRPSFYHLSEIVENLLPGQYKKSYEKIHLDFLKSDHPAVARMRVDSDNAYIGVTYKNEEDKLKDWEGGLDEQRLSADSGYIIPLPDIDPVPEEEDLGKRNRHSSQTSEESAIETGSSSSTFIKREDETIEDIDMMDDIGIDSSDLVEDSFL

[13] = target: panel of 468 diverse kinases (Homo sapiens, UniProt P29597); settings: 1000 nM, read-out: Percent Control
[14] = target: panel of 468 diverse kinases (Homo sapiens, UniProt P35590); settings: TIE1; 1000 nM; read-out: Percent Control
[15] = target: panel of 468 diverse kinases (Homo sapiens, UniProt P36888, D835Y); settings: FLT3(D835Y); 1000 nM; read-out: Percent Control
[16] = target: panel of 468 diverse kinases (Homo sapiens, UniProt P37023); settings: ACVRL1; 1000 nM; read-out: Percent Control
[17] = target: panel of 468 diverse kinases (Homo sapiens, UniProt P43405); settings: SYK; 1000 nM; read-out: Percent Control
[18] = target: panel of 468 diverse kinases (Homo sapiens, UniProt P46734); settings: MEK3; 1000 nM; read-out: Percent Control
[19] = target: panel of 468 diverse kinases (Homo sapiens, UniProt P48736); settings: PIK3CG; 1000 nM; read-out: Percent Control
[20] = target: panel of 468 diverse kinases (Homo sapiens, UniProt Q13976); settings: PRKG1; 1000 nM; read-out: Percent Control
[21] = target: panel of 468 diverse kinases (Homo sapiens, UniProt Q15759); settings: p38-beta; 1000 nM; read-out: Percent Control
[22] = target: panel of 468 diverse kinases (Homo sapiens, UniProt Q15831); settings: LKB1; 1000 nM; read-out: Percent Control
[23] = target: panel of 468 diverse kinases (Homo sapiens, UniProt Q15835); settings: GRK1; 1000 nM; read-out: Percent Control
[24] = target: panel of 468 diverse kinases (Homo sapiens, UniProt Q86Z02); settings: HIPK1; 1000 nM; read-out: Percent Control
[25] = target: panel of 468 diverse kinases (Homo sapiens, UniProt Q8WTQ7); settings: GRK7; 1000 nM; read-out: Percent Control
[26] = target: panel of 468 diverse kinases (Homo sapiens, UniProt Q9HC98); settings: NEK6; 1000 nM; read-out: Percent Control
[27] = target: panel of 468 diverse kinases (Homo sapiens, UniProt Q9NSY1); settings: BIKE; 1000 nM; read-out: Percent Control
[28] = target: panel of 468 diverse kinases (Homo sapiens, UniProt Q9P1W9); settings: PIM2; 1000 nM; read-out: Percent Control
[29] = target: panel of 468 diverse kinases (Homo sapiens, UniProt Q9P289); settings: MST4; 1000 nM; read-out: Percent Control
panel of 468 diverse kinases (Homo sapiens, UniProt Q9P289), sequence (Q9P289 2-416 limits assumed): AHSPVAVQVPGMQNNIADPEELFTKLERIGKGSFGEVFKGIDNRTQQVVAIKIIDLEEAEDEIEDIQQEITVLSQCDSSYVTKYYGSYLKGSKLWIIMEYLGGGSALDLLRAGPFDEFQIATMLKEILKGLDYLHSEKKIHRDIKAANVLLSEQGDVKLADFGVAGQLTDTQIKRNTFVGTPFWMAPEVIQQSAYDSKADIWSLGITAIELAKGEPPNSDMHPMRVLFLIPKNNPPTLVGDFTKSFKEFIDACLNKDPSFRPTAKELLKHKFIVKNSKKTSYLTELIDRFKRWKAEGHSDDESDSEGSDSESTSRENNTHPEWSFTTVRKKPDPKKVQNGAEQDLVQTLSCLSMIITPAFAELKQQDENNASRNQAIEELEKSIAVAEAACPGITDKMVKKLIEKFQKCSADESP

[30] = target: panel of 468 diverse kinases (Homo sapiens, UniProt Q9UF33); settings: EPHA6; 1000 nM; read-out: Percent Control
panel of 468 diverse kinases (Homo sapiens, UniProt Q9UF33), sequence (Q9UF33 23-1036 limits assumed): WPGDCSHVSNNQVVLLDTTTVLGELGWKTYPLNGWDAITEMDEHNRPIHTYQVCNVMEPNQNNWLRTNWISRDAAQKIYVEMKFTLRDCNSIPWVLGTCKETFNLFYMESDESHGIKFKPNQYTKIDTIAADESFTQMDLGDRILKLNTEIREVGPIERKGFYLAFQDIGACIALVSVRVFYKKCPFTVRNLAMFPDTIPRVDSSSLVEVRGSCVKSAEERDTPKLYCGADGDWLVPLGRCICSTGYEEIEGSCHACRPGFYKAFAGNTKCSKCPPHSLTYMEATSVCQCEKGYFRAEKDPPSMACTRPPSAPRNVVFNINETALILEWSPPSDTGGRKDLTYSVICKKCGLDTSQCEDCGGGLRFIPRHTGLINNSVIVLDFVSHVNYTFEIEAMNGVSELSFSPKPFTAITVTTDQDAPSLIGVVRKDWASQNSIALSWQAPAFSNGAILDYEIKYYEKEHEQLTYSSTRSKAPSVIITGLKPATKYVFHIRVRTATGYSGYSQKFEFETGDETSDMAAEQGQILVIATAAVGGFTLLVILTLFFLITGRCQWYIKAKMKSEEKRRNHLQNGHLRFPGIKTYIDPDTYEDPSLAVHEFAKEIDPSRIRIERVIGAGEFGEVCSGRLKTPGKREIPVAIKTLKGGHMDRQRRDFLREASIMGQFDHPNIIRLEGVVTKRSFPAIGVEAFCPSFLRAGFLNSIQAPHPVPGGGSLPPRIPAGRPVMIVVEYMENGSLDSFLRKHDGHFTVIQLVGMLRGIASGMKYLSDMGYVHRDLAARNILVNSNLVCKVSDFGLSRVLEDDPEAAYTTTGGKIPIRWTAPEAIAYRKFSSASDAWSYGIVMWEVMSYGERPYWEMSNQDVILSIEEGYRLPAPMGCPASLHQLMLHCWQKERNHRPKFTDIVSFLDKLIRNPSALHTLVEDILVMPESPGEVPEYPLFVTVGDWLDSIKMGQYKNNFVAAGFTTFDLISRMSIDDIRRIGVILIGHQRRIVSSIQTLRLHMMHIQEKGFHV

Structure (SMILES): COc1cc2nc(NC3CC3)nc(NC3CCN(C(C)C)CC3)c2cc1OC [Formula IV]
- remaining activity at 1 µM [1]: 100%
- remaining activity at 1 µM [2]: 81%
- remaining activity at 1 µM [3]: 45%
- remaining activity at 1 µM [4]: 33%
- remaining activity at 1 µM ([5]; ABL1 (H396P)-nonphosphorylated): 69%
- remaining activity at 1 µM ([5]; ABL1(H396P)-phosphorylated): 68%
- remaining activity at 1 µM ([6]; ABL1(Q252H)-nonphosphorylated): 84%
- remaining activity at 1 µM ([6]; ABL1(Q252H)-phosphorylated): 69%
- remaining activity at 1 µM [7]: 63%
- remaining activity at 1 µM [8]: 91%
- remaining activity at 1 µM [9]: 96%
- remaining activity at 1 µM [10]: 86%
- remaining activity at 1 µM [11]: 88%
- remaining activity at 1 µM [12]: 75%
- remaining activity at 1 µM ([13]; TYK2(JH1domain-catalytic)): 37%
- remaining activity at 1 µM ([13]; TYK2(JH2domain-pseudokinase)): 79%
- remaining activity at 1 µM [14]: 97%
- remaining activity at 1 µM [15]: 88%
- remaining activity at 1 µM [16]: 99%
- remaining activity at 1 µM [17]: 99%
- remaining activity at 1 µM [18]: 66%
- remaining activity at 1 µM [19]: 83%
- remaining activity at 1 µM [20]: 64%
- remaining activity at 1 µM [21]: 87%
- remaining activity at 1 µM [22]: 97%
- remaining activity at 1 µM [23]: 67%
- remaining activity at 1 µM [24]: 100%
- remaining activity at 1 µM [25]: 90%
- remaining activity at 1 µM [26]: 83%
- remaining activity at 1 µM [27]: 100%
- remaining activity at 1 µM [28]: 91%
- remaining activity at 1 µM [29]: 82%
- remaining activity at 1 µM [30]: 100%
